Our source for the IC50 values is patent US9067934B2, “Bicyclic pyridinones” (Pfizer Inc., priority 2011, dated 2015).

Where a name gives a salt, the structure may show the parent alone.

In the assay the test system is production of amyloid beta protein Aβ(1-42) (γ-secretase) in human WT-APP overexpressing CHO cells. Kind of assay: Cell-Based γ-Secretase Assay with ELISA Readout. The conditions noted are these: human WT-APP overexpressing CHO cells, ~24 hours at 37° C., Aβ(1-42) ELISA; footnotes: a = geometric mean of >15 determinations, b = single determination, c = geometric mean of 7-15 determinations; read-out: Aβ 42B IC50 (Geometric Mean of 2-6 Determinations). The protocol:
Cell-Based γ-Secretase Assay with ELISA Readout
The ability of compounds to modulate production of amyloid beta protein Aβ(1-42) was determined using human WT-APP overexpressing CHO cells. Cells were plated at 22,000 cells/100 μL well in 96 well tissue culture treated, clear plates (Falcon) in DMEM/F12 based medium and incubated for 24 hours at 37° C. Compounds for testing were diluted in 100% DMSO to achieve an eleven points, half log, dose response for IC50 determinations. Compounds were added in fresh medium to achieve 1% final DMSO. Appropriate vehicle or inhibitor controls were added into control wells individually to obtain minimum or maximum inhibition values, respectively, for the assay signal window before the plates were incubated for ˜24 hours at 37° C. This procedure produces conditioned media in each well which is tested for Aβ(1-42) levels in the ELISA detection step described next. The remaining cell cultures in each well are also tested for cell toxicity as described below.
Coating of ELISA assay plates was initiated by addition of 50 μL/well of an in-house Aβ(1-42) specific antibody at (3 μg/mL) in 0.1 M NaHCO3 (pH 9.0) into black 384-well Maxisorp® plates (Nunc) and incubated overnight at 4° C. The capture antibody was then aspirated from the ELISA assay plates and plates were washed 4×100 μL with Wash Buffer (Dulbecco's PBS, 0.05% Tween 20). 90 μL/well of Blocking Buffer (Dulbecco's PBS, 1.0% BSA (Sigma A7030)) was then added to plates. Ambient temperature incubation was allowed to proceed for a minimum of two hours. Blocking buffer was then removed and 20 μL/well Assay Buffer (Dulbecco's PBS, 1.0% BSA (Sigma A7030), 0.05% Tween 20) was then added. At this point, 40 μL (in duplicate) of experimental conditioned media (described above) were transferred into wells of the blocked ELISA plates containing the capture antibody, followed by overnight incubation at 4° C. Cell toxicity was also measured in the corresponding remaining cells after removal of the conditioned media for the Aβ(1-42) assay by a colorimetric cell proliferation assay (CellTiter 96® AQueous One Solution Cell Proliferation Assay, Promega) according to the manufacturer's instructions.
After overnight incubation of the ELISA assay plates at 4° C., unbound Aβ peptides were removed via (4×100 μL) washes with Wash Buffer. Europium (Eu) labeled (custom labeled, Perkin Elmer) Aβ(1-16) 6e10 Monoclonal Antibody (Covance #SIG-39320) was added, (50 μL/well Eu-6e10 @ 1:10,000, 20 uM EDTA) in Assay Buffer. Incubation at ambient temperature for a minimum of 2 hours was followed by (4×100 μL) washes with Wash Buffer, before 30 μL/well of Delfia Enhancement Solution (Perkin Elmer) was added. Following an one hour ambient temperature incubation, the plates were read on an EnVision plate reader (Perkin Elmer) using standard DELFIA TRF settings. Data analysis including inhibitory IC50 determination was performed using nonlinear regression fit analysis (in-house software) and the appropriate plate mean values for the maximum and minimum inhibition controls.
In general terms: In an ELISA, binding on a coated surface is turned into a signal by an enzyme label.

`Cc1cn(-c2ccc3n(c2=O)CCN(CCOc2ccc(F)cc2C2CC2)C3=O)cn1` [Example 21, 2-[2-(2-cyclopropyl-4-fluorophenoxy)ethyl]-7-(4-methyl-1H-imidazol-1-yl)-3,4-dihydro-2H-pyrido[1,2-a]pyrazine-1,6-dione]: the IC50 was 262 nM. With `Cc1cn(-c2ccc3n(c2=O)CCN(CCOc2ccc(Cl)cc2C(F)(F)F)C3=O)cn1` [Example 22, 2-{2-[4-chloro-2-(trifluoromethyl)phenoxy]ethyl}-7-(4-methyl-1H-imidazol-1-yl)-3,4-dihydro-2H-pyrido[1,2-a]pyrazine-1,6-dione], the IC50 is 103 nM.

For the compound `Cc1cn(-c2ccc3n(c2=O)CCN(CCOc2ccc(F)c(Cl)c2Cl)C3=O)cn1` [Example 23, 2-[2-(2,3-dichloro-4-fluorophenoxy)ethyl]-7-(4-methyl-1H-imidazol-1-yl)-3,4-dihydro-2H-pyrido[1,2-a]pyrazine-1,6-dione], the IC50 amounted to 173 nM. In the case of `Cc1cn(-c2ccc3n(c2=O)CCN(CCOc2ccccc2-c2cc(C)ns2)C3=O)cn1` [Example 24, 7-(4-methyl-1H-imidazol-1-yl)-2-{2-[2-(3-methylisothiazol-5-yl)phenoxy]ethyl}-3,4-dihydro-2H-pyrido[1,2-a]pyrazine-1,6-dione] it was 104 nM. Regarding `Cc1cn(-c2ccc3n(c2=O)CCN(CCOc2ccccc2C2CCC2)C3=O)cn1` [Example 25, 2-[2-(2-cyclobutylphenoxy)ethyl]-7-(4-methyl-1H-imidazol-1-yl)-3,4-dihydro-2H-pyrido[1,2-a]pyrazine-1,6-dione], the IC50 worked out at 73.2 nM. As for `Cc1cn(-c2ccc3n(c2=O)CCN(CCOc2cccc4c2oc2ccccc24)C3=O)cn1` [Example 26, 2-[2-(dibenzo[b,d]furan-4-yloxy)ethyl]-7-(4-methyl-1H-imidazol-1-yl)-3,4-dihydro-2H-pyrido[1,2-a]pyrazine-1,6-dione], the IC50 amounted to 95.7 nM. As for `Cc1cn(-c2ccc3n(c2=O)CCN(CCOc2ccc(Cl)c(Cl)c2Cl)C3=O)cn1` [Example 27, 7-(4-methyl-1H-imidazol-1-yl)-2-[2-(2,3,4-trichlorophenoxy)ethyl]-3,4-dihydro-2H-pyrido[1,2-a]pyrazine-1,6-dione], the IC50 was 103 nM. In the case of `Cc1cn(-c2ccc3n(c2=O)CCN(CCCOc2cc(C)c(Cl)c(C)c2)C3=O)cn1` [Example 28, 2-[3-(4-chloro-3,5-dimethylphenoxy)propyl]-7-(4-methyl-1H-imidazol-1-yl)-3,4-dihydro-2H-pyrido[1,2-a]pyrazine-1,6-dione], the IC50 is 31.9 nM.

Take `Cc1cn(-c2ccc3n(c2=O)CCN(CCOc2ccc(C(F)(F)F)cc2C(F)(F)F)C3=O)cn1` [Example 29, 2-{2-[2,4-bis(trifluoromethyl)phenoxy]ethyl}-7-(4-methyl-1H-imidazol-1-yl)-3,4-dihydro-2H-pyrido[1,2-a]pyrazine-1,6-dione]: the IC50 was 154 nM. Turning to `Cc1cn(-c2ccc3n(c2=O)CCN(CCOc2cc(Cl)c(Cl)cc2Cl)C3=O)cn1` [Example 30, 7-(4-methyl-1H-imidazol-1-yl)-2-[2-(2,4,5-trichlorophenoxy)ethyl]-3,4-dihydro-2H-pyrido[1,2-a]pyrazine-1,6-dione], the concentration for half-maximal inhibition (IC50) is 132 nM.

As to `Cc1cn(-c2ccc3n(c2=O)CCN(CCOc2ccc(C(F)(F)F)nc2C(F)(F)F)C3=O)cn1` [Example 31, 2-(2-{[2,6-bis(trifluoromethyl)pyridin-3-yl]oxy}ethyl)-7-(4-methyl-1H-imidazol-1-yl)-3,4-dihydro-2H-pyrido[1,2-a]pyrazine-1,6-dione], the IC50 came out at 96.8 nM. `Cc1cn(-c2ccc3n(c2=O)CCN(CCCOc2ccccc2C(C)(C)C)C3=O)cn1` [Example 32, 2-[3-(2-tert-butylphenoxy)propyl]-7-(4-methyl-1H-imidazol-1-yl)-3,4-dihydro-2H-pyrido[1,2-a]pyrazine-1,6-dione, trifluoroacetate salt]: the IC50 was 143 nM. To `Cc1cn(-c2ccc3n(c2=O)CCN(CCOc2cccc(Cl)c2Cl)C3=O)cn1` [Example 33, 2-[2-(2,3-dichlorophenoxy)ethyl]-7-(4-methyl-1H-imidazol-1-yl)-3,4-dihydro-2H-pyrido[1,2-a]pyrazine-1,6-dione, trifluoroacetate salt] belongs 194 nM; to `Cc1cn(-c2ccc3n(c2=O)CCN(CCOc2ccccc2-c2ccccc2)C3=O)cn1` [Example 34, 2-[2-(biphenyl-2-yloxy)ethyl]-7-(4-methyl-1H-imidazol-1-yl)-3,4-dihydro-2H-pyrido[1,2-a]pyrazine-1,6-dione, trifluoroacetate salt], 262 nM; to `Cc1cn(-c2ccc3n(c2=O)CCN(CCOc2ccc(F)c(C(F)(F)F)c2Cl)C3=O)cn1` [Example 35, 2-{2-[2-chloro-4-fluoro-3-(trifluoromethyl)phenoxy]ethyl}-7-(4-methyl-1H-imidazol-1-yl)-3,4-dihydro-2H-pyrido[1,2-a]pyrazine-1,6-dione, trifluoroacetate salt], 133 nM.

As for `Cc1cn(-c2ccc3n(c2=O)CCN(CCOc2ccccc2-c2csc(C)n2)C3=O)cn1` [Example 36, 7-(4-methyl-1H-imidazol-1-yl)-2-{2-[2-(2-methyl-1,3-thiazol-4-yl)phenoxy]ethyl}-3,4-dihydro-2H-pyrido[1,2-a]pyrazine-1,6-dione, trifluoroacetate salt], the IC50 amounted to 302 nM.

For `Cc1cn(-c2ccc3n(c2=O)CCN(CCOc2ccccc2-c2sncc2C)C3=O)cn1` [Example 37, 7-(4-methyl-1H-imidazol-1-yl)-2-{2-[2-(4-methylisothiazol-5-yl)phenoxy]ethyl}-3,4-dihydro-2H-pyrido[1,2-a]pyrazine-1,6-dione, trifluoroacetate salt], the IC50 amounted to 219 nM. In the case of `Cc1ccc(OCCN2CCn3c(ccc(-n4cnc(C)c4)c3=O)C2=O)c(-c2cc(C(F)(F)F)on2)c1` [Example 38, 7-(4-methyl-1H-imidazol-1-yl)-2-(2-{4-methyl-2-[5-(trifluoromethyl)isoxazol-3-yl]phenoxy}ethyl)-3,4-dihydro-2H-pyrido[1,2-a]pyrazine-1,6-dione, trifluoroacetate salt], the IC50 was determined as 293 nM. As to `Cc1cn(-c2ccc3n(c2=O)CCN(CCOc2ccccc2-c2cc(C(F)(F)F)on2)C3=O)cn1` [Example 39, 7-(4-methyl-1H-imidazol-1-yl)-2-(2-{2-[5-(trifluoromethyl)isoxazol-3-yl]phenoxy}ethyl)-3,4-dihydro-2H-pyrido[1,2-a]pyrazine-1,6-dione, trifluoroacetate salt], the IC50 is 525 nM. `Cc1cn(-c2ccc3n(c2=O)CCN(CCOc2ccccc2-c2csc(C(F)(F)F)n2)C3=O)cn1` [Example 40, 7-(4-methyl-1H-imidazol-1-yl)-2-(2-{2-[2-(trifluoromethyl)-1,3-thiazol-4-yl]phenoxy}ethyl)-3,4-dihydro-2H-pyrido[1,2-a]pyrazine-1,6-dione]: the IC50 worked out at 19.6 nM. As for `Cc1cn(-c2ccc3n(c2=O)CCN(CCOc2ccccc2-c2coc(C)n2)C3=O)cn1` [Example 41, 7-(4-methyl-1H-imidazol-1-yl)-2-{2-[2-(2-methyl-1,3-oxazol-4-yl)phenoxy]ethyl}-3,4-dihydro-2H-pyrido[1,2-a]pyrazine-1,6-dione, trifluoroacetate salt], the IC50 is 156 nM.

The IC50 is the concentration that inhibits the measured activity by half.
